Measurements published in US7094754B2, “Anti-aging and wound healing compounds” (Kimberly-Clark Worldwide, Inc., priority 2001, dated 2006).

Columns and labels:
[1] = system: human skin fibroblast cell line (Clonetics, CC-2509); assay: Collagen production in human skin fibroblasts (Takara EIA kit); type: cell-based; conditions: for collagen production, Median (absorbance at 450 nm) / collagen production, Mean (absorbance at 450 nm): 48 hours; for collagen production, Mean (absorbance at 450 nm): n=2, control mean 0.7388
Experimental: The stimulation response of the 19mer peptide (SEQ ID NO:11) on collagen production in the human skin fibroblast cell line (Clonetics, Walkersville, Md., normal human dermal fibroblasts, neonatal, catalog number CC-2509) was measured using Takara Biomedicals EIA assay kit (TAK MK101) sold by Panvera (Madison, Wis.). The cells were first grown in a 96-well assay system using Dulbecco's Modified Eagle's Medium (DMEM) with 10% fetal bovine serum (FBS) both purchased from Sigma Chemical Co, St. Louis, Mo. Serum-free DMEM was used as a control. […] Plates were incubated for 24 hours at 37° C. in a humidified 5% CO2 atmosphere. After incubation, the medium was aspirated and the wells were rinsed twice with 100 μl of serum-free DMEM. […] In addition, 100 μl of vehicle (serum-free DMEM) was added to 4 wells as control. All wells were incubated for 48 hours at 37° C. in a humidified, 5% CO2 atmosphere.
The assay was performed using the recommended 20 ul of the supernatant from each well of the 96-well plate. Standard buffer and stop solutions were freshly prepared before running the assay. 100 ul of antibody-POD conjugate solution (supplied with the kit) was added into the wells using pre antibody coated 96 well plate (supplied with the kit). 20 ul of standard and test solutions (from the other 96-well plate containing fibroblasts) were added to appropriate wells. Plate was mixed gently, sealed and incubated for three hrs. at 37° C.
After incubation each well was washed carefully four times with PBS buffer (400 ul). All the wells were completely emptied at the end of washing from any liquid. 100 ul of substrate solution (hydrogen peroxide and tetramethylbenzidine in a buffer solution, supplied with the kit) was added to each well and the plate was incubated for 15 minutes. At this point 100 ul of stop solution (freshly prepared 1N H2SO4) was added to each well in the same order as substrate. The plate was gently mixed and absorbance was read at 450 nm. Results were analyzed statistically using one-way ANOVA.

[2] = system: normal human dermal fibroblasts (Clonetics, CC-2509); assay: Fibroblast proliferation assay; type: cell-based; conditions: 28 hours
Experimental: A human skin fibroblast cell line (Clonetics, Walkersville, Md., normal human dermal fibroblasts, neonatal, catalog number CC-2509) was tested to ascertain whether exposure to a peptide of the invention would stimulate cellular proliferation. The proliferative response of the human skin fibroblast cell line to thel 9mer peptide (SEQ ID NO:11) was measured in a 96-well assay system using serum-free medium as a control. […] Plates were incubated for 24 hours at 37° C. in a humidified 5% CO2 atmosphere. After incubation, the medium was aspirated and the wells were rinsed twice with 100 μl of serum-free DMEM. […] In addition, 100 μl of vehicle (serum-free DMEM) was added to 10 wells as control. All wells were incubated for 28 hours at 37° C. in a humidified, 5% CO2 atmosphere. After incubation, 20 μl of Cell Titer 96 Aqueous One Solution was added to all wells. The plates were swirled gently and placed back in the incubator for 45 minutes and spectrophotometric absorbance was read at 490 nm. Results were analyzed statistically using one-way ANOVA.

## CC(C)[C@H](NC(=O)[C@H](CC(=O)O)NC(=O)[C@@H]1CCCN1C(=O)[C@H](CC(N)=O)NC(=O)CNC(=O)[C@H](CS)NC(=O)[C@H](CCCNC(=N)N)NC(=O)[C@@H]1CCCN1)C(=O)N[C@@H](C)C(=O)N[C@@H](CC(N)=O)C(=O)N[C@@H](Cc1ccc(O)cc1)C(=O)N[C@@H](CC(N)=O)C(=O)N[C@@H](Cc1ccccc1)C(=O)N[C@@H](Cc1ccccc1)C(=O)N1CCC[C@H]1C(=O)N[C@@H](CCCNC(=N)N)C(=O)N[C@@H](CCCCN)C(=O)N1CCC[C@H]1C(=O)N[C@@H](CCCCN)C(=O)O [19-mer]
[1]; 1×10^−5 M
  collagen production, Median (absorbance at 450 nm): 0.8365
  collagen production, Mean (absorbance at 450 nm): 0.8365
[1]; 1×10^−6 M
  collagen production, Median (absorbance at 450 nm): 0.8315
  collagen production, Mean (absorbance at 450 nm): 0.8315
[1]; 10^−5 and 10^−6 M, P<0.001
  collagen production versus control: increased collagen production at both concentrations employed
[2]; 1×10^−4 M
  fibroblast growth (OD 490 nm) versus control: even greater cell growth
[2]; 1×10^−5 M
  fibroblast growth (OD 490 nm) versus control: significantly greater cell density
[2]; 1×10^−6 M
  fibroblast growth (OD 490 nm) versus control: a small amount of cell proliferation
